According to patent publication US8883833B2, “Substituted benzoazole PDE4 inhibitors for treating inflammatory, cardiovascular and CNS disorders” (Decode Genetics EHF, priority 2007, dated 2014):

Experiments:
[1] = target: human PDE4D isozyme (Homo sapiens, UniProt Q08499); test: IC50 for human PDE4D isozyme (Table 4); type: biochemical; settings: read-out: IC50 for human PDE4D isozyme, hPDE4D
Experimental: (§1) In-vitro assay for PDE4 enzymes. The in-vitro activity of PDE4 enzymes and the in-vitro potency of therapeutic agents described in the present invention was measured using a real-time, enzyme-coupled spectrophotometric assay. By using three different coupling enzymes, the product of the PDE4 reaction is coupled to the oxidation of the reduced form β-nicotinamide adenine dinucleotide (NADH), which dissipation can be monitored spectrophotmetrically at […]. Assay description. Buffer A containing 50 mM Tris, pH 8.0, 16 mM MgCl2 and 80 mM KCl is prepared and stored at room temperature. Buffer B containing 50 mM Tris, pH 8.0 is prepared and stored at toom temperature. Stock solutions of the following reagents are prepared in Buffer B and stored at −20° C.: Adenosine-5′-triphosphate (ATP), cyclic adenosine-5′-monophosphate (cAMP), phosphoenolpyruvate (PEP) and NADH. An assay mix is prepared by mixing Buffer A, […] (TCEP), ATP, PEP, NADH, myokinase (MK), pyruvate kinase (PK), lactate dehydroganese (LDH) and PDE4 to a final volume of 20 mL, which is enough for a single 96-well assay plate. Assay mix (180 μL) and test article (10 μL) in 1:1 DMSO/H2O mixture is pre-incubated at room temperature for 10 min. The enzymatic reaction is initiated by addition of cAMP (10 μL). Final concentration of all components in the assay (200 μL/well) are as follows: 10 mM MgCl2, 50 mM KCl, 5 mM TCEP, 2.5% DMSO, 0.4 mM NADH, 1 mM PEP, 0.04 mM ATP, 5 units MK, 1 unit PK, 1 unit LDH and appropriate amount of PDE4. Reaction progress curves are monitored in a plate reader capable of measuring light absorbance at 340 nm. A decrease in light absorbance at 340 nm is due to oxidation of NADH. Positive controls containing no test article and negative controls containing no test article and no cAMP are included on every assay plate. Reaction rates are determined from the slopes of the linear portions of the progress curves. All data is percent normalized with respect to controls and presented as percent inhibition.

[2] = target: human PDE4B isozyme (Homo sapiens, UniProt Q07343); test: IC50 for human PDE4B isozyme (Table 5); type: biochemical; settings: read-out: IC50 for human PDE4B isozyme, hPDE4B
Experimental: as §1

Sequence of human PDE4D isozyme (Q08499 whole entry): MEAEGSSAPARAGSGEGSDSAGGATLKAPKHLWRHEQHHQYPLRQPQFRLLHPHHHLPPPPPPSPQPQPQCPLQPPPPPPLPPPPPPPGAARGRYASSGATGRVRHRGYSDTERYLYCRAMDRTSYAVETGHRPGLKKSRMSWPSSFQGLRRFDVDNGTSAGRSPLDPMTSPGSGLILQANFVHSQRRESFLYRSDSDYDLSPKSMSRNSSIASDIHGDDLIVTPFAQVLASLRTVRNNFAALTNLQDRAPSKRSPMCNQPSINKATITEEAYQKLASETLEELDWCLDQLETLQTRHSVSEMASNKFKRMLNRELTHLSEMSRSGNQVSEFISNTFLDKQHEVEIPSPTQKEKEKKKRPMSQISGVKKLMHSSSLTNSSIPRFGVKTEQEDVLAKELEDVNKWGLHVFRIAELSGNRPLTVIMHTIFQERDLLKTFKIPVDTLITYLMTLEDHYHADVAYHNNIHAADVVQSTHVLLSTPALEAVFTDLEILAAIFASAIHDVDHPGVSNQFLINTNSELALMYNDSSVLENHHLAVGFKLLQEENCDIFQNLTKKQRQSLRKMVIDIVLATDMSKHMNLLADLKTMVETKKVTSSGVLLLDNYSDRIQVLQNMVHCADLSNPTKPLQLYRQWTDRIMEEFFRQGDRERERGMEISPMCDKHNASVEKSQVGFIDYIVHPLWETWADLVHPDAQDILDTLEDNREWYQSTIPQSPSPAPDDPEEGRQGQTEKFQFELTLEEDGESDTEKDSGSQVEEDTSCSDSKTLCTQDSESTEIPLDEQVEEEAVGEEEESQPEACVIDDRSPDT
Sequence of human PDE4B isozyme (Q07343 whole entry): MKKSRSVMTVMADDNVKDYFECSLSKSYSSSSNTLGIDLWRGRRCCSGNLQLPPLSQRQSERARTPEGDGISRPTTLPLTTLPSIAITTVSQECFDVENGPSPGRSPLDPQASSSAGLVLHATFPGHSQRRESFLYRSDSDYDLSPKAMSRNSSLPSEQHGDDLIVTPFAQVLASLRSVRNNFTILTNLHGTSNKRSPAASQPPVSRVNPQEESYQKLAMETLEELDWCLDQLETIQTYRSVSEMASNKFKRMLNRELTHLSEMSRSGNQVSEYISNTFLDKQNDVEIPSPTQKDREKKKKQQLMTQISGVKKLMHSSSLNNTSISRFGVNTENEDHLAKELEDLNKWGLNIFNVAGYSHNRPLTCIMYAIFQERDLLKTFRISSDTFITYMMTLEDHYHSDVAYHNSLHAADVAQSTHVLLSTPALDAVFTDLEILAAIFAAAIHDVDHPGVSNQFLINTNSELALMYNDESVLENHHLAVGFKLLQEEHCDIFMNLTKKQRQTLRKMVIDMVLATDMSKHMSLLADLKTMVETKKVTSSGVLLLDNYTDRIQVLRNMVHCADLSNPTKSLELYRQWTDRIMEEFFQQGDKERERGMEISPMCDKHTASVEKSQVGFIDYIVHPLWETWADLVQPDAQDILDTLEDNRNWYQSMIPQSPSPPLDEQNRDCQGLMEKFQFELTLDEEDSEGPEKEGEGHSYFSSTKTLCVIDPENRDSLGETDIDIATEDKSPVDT

Row | SMILES | IC50 [1] [µM] | IC50 [2] [µM]
1 | Nc1nc2c(-c3ccc4nonc4c3)cc(Cc3ccc(F)cc3)cc2s1 [BA-03, 4-Benzol[1,2,5]oxadiazol-5-yl-6-(4-fluoro-benzyl)-benzothiazol-2-yl amine] | < 5 | < 5
2 | NC(=O)Nc1ccc(Cc2cc(-c3cccc(Cl)c3)c3ncsc3c2)cc1 [BA-28, {4-[4-(3-Chloro-phenyl)-benzothiazol-6-ylmethyl]-phenyl}-urea] | < 5 | < 5
3 | Nc1nc2c(-c3ccc4c(c3)OCO4)cc(Cn3cccn3)cc2s1 [BA-09, 4-Benzo[1,3]dioxol-5-yl-6-pyrazol-1-ylmethyl-benzothiazol-2-ylamine] | < 5 | < 5
4 | Fc1c(CN2CCOCC2)cc2scnc2c1-c1cccc(Cl)c1 [BA-43, 4-(3-Chloro-phenyl)-5-fluoro-6-morpholin-4-ylmethyl-benzothiazole] | < 5 | < 5
5 | Nc1nc2c(-c3cccc([N+](=O)[O-])c3)cc(Cn3ccnc3)cc2s1 [BA-02, 6-imidazol-1-ylmethyl-4-(3-nitro-phenyl)-benzothiazol-2-ylamine] | < 5 | < 5
6 | O=C1CNCCN1Cc1cc2scnc2c(-c2cccc(Cl)c2)c1F [BA-73, 1-[4-(3-Chloro-phenyl)-5-fluoro-benzothiazol-6-ylmethyl]-piperazin-2-one] | < 5 | < 5
7 | CN1CCN(Cc2cc3scnc3c(-c3cccc(Cl)c3)c2F)CC1 [BA-50, 4-(3-Chloro-phenyl)-5-fluoro-6-(4-methyl-piperazin-1-ylmethyl)-benzothiazole] | < 5 | –
8 | Nc1nc2c(-c3cccc(C(F)(F)F)c3)cc(Cc3ccc(F)cc3)cc2s1 [BA-07, 6-(4-Fluoro-benzyl)-4-(3-trifluoromethyl-phenyl)-benzothiazol-2-ylamine] | < 5 | < 5
9 | CC(=O)N1CCN(Cc2cc3scnc3c(-c3cccc(Cl)c3)c2F)CC1 [BA-44, 1-{4-[4-(3-Chloro-phenyl)-5-fluoro-benzothiazol-6-ylmethyl]-piperazin-1-yl}-ethanone] | < 5 | 5 to 20
10 | Cn1nccc1C(O)c1cc(-c2ccc3c(c2)OCO3)c2nc(N)sc2c1 (stereo not drawn) [BA-06, (2-Amino-4-benzo[1,3]dioxol-5-yl-benzothiazol-6-yl)-(2-methyl-2H-pyrazol-3-yl)-methanol] | < 5 | < 5
11 | CCNC(=O)Nc1ccc(Cc2cc3sc(N)nc3c(-c3cccc(Cl)c3)c2F)cc1 [BA-29, 1-{4-[2-Amino-4-(3-chloro-phenyl)-5-fluoro-benzothiazol-6-ylmethyl]-phenyl}-3-ethyl-urea] | < 5 | < 5
12 | O=C1CN(Cc2cc3scnc3c(-c3cccc(Cl)c3)c2F)CCN1 [BA-71, 4-[4-(3-Chloro-phenyl)-5-fluoro-benzothiazol-6-ylmethyl]-piperazin-2-one] | < 5 | < 5
13 | NC(=O)Nc1ccc(Cc2cc(-c3cccc(Cl)c3)c3nc(N)sc3c2)cc1 [BA-27, {4-[2-Amino-4-(3-chloro-phenyl)-benzothiazol-6-ylmethyl]-phenyl}-urea] | < 5 | < 5
14 | Nc1ccc(Cc2cc(-c3cccc(Cl)c3)c3nc(N)oc3c2)cc1 [BA-32, 6-(4-aminobenzyl)-4-(3-chlorophenyl)-1,3-benzoxazol-2-amine] | < 5 | < 5
15 | Nc1nc2c(-c3ccc4c(c3)OCO4)cc(C(O)c3ccc(F)cc3)cc2s1 (stereo not drawn) [BA-05, (2-Amino-4-benzo[1,3]dioxol-5-yl-benzothiazol-6-yl)-(4-fluoro-phenyl)-methanol] | < 5 | < 5
16 | CSc1cccc(-c2cc(Cn3cccn3)cc3sc(N)nc23)c1 [BA-14, 4-(3-Methylsulfanyl-phenyl)-6-pyrazol-1-ylmethyl-benzothiazol-2-ylamine] | < 5 | < 5
17 | Nc1ccc(Cc2cc(-c3cccc(Cl)c3)c3nc(N)sc3c2)cc1 [BA-26, 6-(4-Amino-benzyl)-4-(3-chloro-phenyl)-benzothiazol-2-ylamine] | < 5 | < 5
18 | Nc1ccc(Cc2cc3sc(N)nc3c(-c3cccc([N+](=O)[O-])c3)c2O)cc1 [BA-15, 2-Amino-6-(4-amino-benzyl)-4-(3-nitro-phenyl)-benzothiazol-5-ol] | < 5 | < 5

Other lines, results leading:

Row | IC50 [1] [µM] | IC50 [2] [µM] | SMILES
19 | < 5 | < 5 | Nc1ccc(Cc2cc3scnc3c(-c3cccc(Cl)c3)c2F)cn1 [BA-63, 5-[4-(3-chloro-phenyl)-5-fluoro-benzothiazol-6-ylmethyl]-pyridin-2-ylamine]
20 | < 5 | < 5 | Nc1ccc(Cc2cc(-c3cccc(Cl)c3)c3ncsc3c2)cc1 [BA-25, 4-[4-(3-Chloro-phenyl)-benzothiazol-6-ylmethyl]-phenylamine]
21 | < 5 | < 5 | NC(=O)[C@H]1CCN1c1ccc(Cc2cc3scnc3c(-c3cccc(Cl)c3)c2F)cn1 [BA-75, (R)-1-{5-[4-(3-chloro-phenyl)-5-fluoro-benzothiazol-6-ylmethyl]-pyridin-2-yl}-azetidine-2-carboxylic acid amide]
22 | < 5 | – | Fc1c(Cc2ccc(N3CCCC3)nc2)cc2scnc2c1-c1cccc(Cl)c1 [BA-57, 4-(3-chloro-phenyl)-5-fluoro-6-(6-pyrrolidin-1-yl-pyridin-3-ylmethyl)-benzothiazole]
23 | < 5 | < 5 | NC(=O)Nc1ccc(Cc2cc3sc(N)nc3c(-c3cccc(Cl)c3)c2F)cc1 [BA-21, {4-[2-amino-4-(3-chloro-phenyl)-5-fluoro-benzothiazol-6-ylmethyl]-phenyl}-urea]
24 | < 5 | < 5 | CN(C)CC(=O)Nc1ccc(Cc2cc3scnc3c(-c3cccc(Cl)c3)c2F)cn1 [BA-64, N-{5-[4-(3-chloro-phenyl)-5-fluoro-benzothiazol-6-ylmethyl]-pyridin-2-yl}-2-dimethylamino-acetamide]
25 | < 5 | < 5 | CN(C)c1ccc(Cc2cc(-c3cccc(Cl)c3)c3ncsc3c2)cn1 [BA-58, {5-[4-(3-chloro-phenyl)-benzothiazol-6-ylmethyl]-pyridin-2-yl}-dimethyl-amine]
26 | < 5 | < 5 | CN(C)c1ccc(Cc2cc3scnc3c(-c3cccc(Cl)c3)c2F)cn1 [BA-55, {5-[4-(3-chloro-phenyl)-5-fluoro-benzothiazol-6-ylmethyl]-pyridin-2-yl}-dimethyl-amine]
27 | < 5 | < 5 | Nc1ccc(Cc2cc3sc(N)nc3c(-c3cccc(Cl)c3)c2F)cc1 [BA-16, 6-(4-amino-benzyl)-4-(3-chloro-phenyl)-5-fluoro-benzothiazol-2-ylamine]
28 | < 5 | < 5 | N#Cc1ccc(Cc2cc3scnc3c(-c3cccc(Cl)c3)c2F)cn1 [BA-60, 5-[4-(3-chloro-phenyl)-5-fluoro-benzothiazol-6-ylmethyl]-pyridine-2-carbonitrile]
29 | < 5 | < 5 | CCOC(=O)Nc1ccc(Cc2cc3scnc3c(-c3cccc(Cl)c3)c2F)cn1 [BA-40, {5-[4-(3-chloro-phenyl)-5-fluoro-benzothiazol-6-ylmethyl]-pyridin-2-yl}-carbamic acid ethyl ester]
30 | < 5 | – | Cc1nc2c(-c3cccc(Cl)c3)cc(Cc3ccc(N)nc3)cc2s1 [BA-66, 5-[4-(3-chloro-phenyl)-2-methyl-benzothiazol-6-ylmethyl]-pyridin-2-ylamine]
